# Peptide text beside a SMILES is read from it. * marks the point of attachment. Boc = CC(C)(C)OC(=O)*
# Test system: HCT-116 cells
# Test: MTT cell proliferation assay on HCT-116 cells
# Format: cell-based
# Protocol: For cell culture experiments various cancer cell lines, HCT-116 colon cancer, U87-MG glial tumor, MCF7 breast cancer cell lines were used. Cells were seeded with high glucose DMEM medium (Biosera) supplemented with 10% FBS (Gibco) and 1× penicillin/streptomycin (Multicell). Twenty-four hours prior to molecule treatment, 10,000 cells were seeded into each well of 24-well cell culture plates. Molecules were used by preparing 4 mM stock solution in DMSO (Amresco). For molecule treatment, molecule stock solutions were diluted in DMEM with 10% FBS and added onto cells in each corresponding well. Final concentration of vehicle DMSO was 2% at maximum. […] We calculated the number of cells to be seeded to make sure that none of the cells reaches more than 60% confluency during the treatment period, as higher plate confluency levels would slow down cell proliferation independently from the molecule treatment.
# Values of half-maximal inhibitory concentration were (IC50) determined by MTT cell proliferation assays. […] 570 nm absorbance values were recorded and IC50 values were calculated by dose response—inhibition curves and nonlinear regression analysis on GraphPad Prism 8 software. […] Following the initial incubation day, molecules were added and after incubation with MTT at 37° C. for 4 hours, formazan was solubilized with DMSO (Sigma-Aldrich, St. Louis, USA) and absorbance was measured at 570 nm. […]
smiles,measurement,setting,value
CCC(C)C(NC(=O)C(Cc1c[nH]c2ccccc12)NC(=O)OC(C)(C)C)C(=O)NC(CC(C)C)C(N)=O (stereo not drawn) [compound of formula I] (Boc-Trp-Ile-Leu-NH2; configuration not given here),proliferation of HCT-116 cells compared to vehicle group,"HCT-116 cells, MTT assay, FIG. 1",reduced proliferation and apoptotic cell structures
same,IC50,"Homo sapiens, 72 h, HCT-116 colon cancer cells, single treatment, three days, 570 nm absorbance, read-out: IC50 (half-maximal inhibitory concentration), MTT cell proliferation",17 µM
